Data taken from patent publication US20190343908A1, “Therapeutic Combination for the Treatment of Cancer” (Nerium Biotechnology Inc., priority 2011, published 2019).

Tests used:
[1] = tested on: CALU-1 (non-small cell lung carcinoma); assay: Crystal Violet viability assay, CALU-1; format: cell-based, human
Text: (§1) The Sulforhodamine B and Crystal Violet assays provide information about protein and were used to complement the Methyl-Tetrazolium dye assay. […] It is used for the quantification of cellular proteins of cultured cells. The assay using Crystal Violet, a dye that binds electrostatically to proteins and stains DNA, provides a reliable, simple assay for measuring viability of cells.
(§2) The Methyl Tetrazolium, Sulforhodamine B, and Crystal Violet assays were used to assess cell viabilities. The incubation times were 24 hours, 48 hours, and 72 hours. The Nerium oleander extract Anvirzel™ (a hot water extract of oleander obtained from Salud Integral, Honduras) was tested in concentrations ranging from 0.01 ng/mL to 10 ng/mL.
(§3) Cells were detached by trypsinization (Trypsin-0.25% EDTA, Invitrogen, 25200-072) during the logarithmic phase of culture growth and plated in 96-well plates (18.000 cells/well) (Corning, Costar 359) in a final volume of 200 μl of medium per well. […] The absorbance was measured after 24 hours, 48 hours, and 72 hours of incubation.
(§4) For the Crystal Violet assay, the medium was removed from the 96-well plates, the plates rinsed with PBS (Sigma, P3813) and then the cells were […] by the addition of 10% formalin (MERCK, 1.04003.2500) for 20 minutes at RT. Formalin was removed and 0.25% aqueous crystal violet (Sigma, HT901), dissolved in water, was added for 10 minutes at RT. Unbound Crystal Violet was rinsed by washing with water and finally 33% acetic acid was added to dissolve the dye.
(§5) The optical density of each plate was measured on a μQuant spectrophotometer and the data were analyzed with Gen5 software (μQuant Biomolecular Spectrophotometer MQX200 and Gen5™ Microplate Data Collection & Analysis software, BioTek® Instruments. Inc, April 2008). Absorbance was measured at 570 nm for all assays and a second wavelength was measured in order to subtract noise. For the Methyl-Tetrazolium assay this second wavelength was 630 nm and for the Sulforhodamine B and Crystal Violet assays it was 690 nm.

[2] = tested on: HCT-116 (colorectal cancer); assay: Crystal Violet viability assay, HCT-116; format: cell-based, human; parameters: key: absorbance at 570 nm (crystal violet), background wavelength subtracted; details: for Average CVE: HCT-116
Text: Three different viability assays were chosen to complement each other and yielded results dependent on concentration and cell line: the Methyl Tetrazolium dye assay, the Sulforhodamine B fluorescent dye assay, and the Crystal Violet dye assay.
as §1, §2, §3, §4, §5

For `N.N.[Cl][Pt][Cl]` [cisplatin], the “Average CVE 24 h” value ([1]; CALU-1 Run 1, 0.1 μg/ml CDDP) was 0.554, the “Average CVE 48 h” value ([1]; CALU-1 Run 1, 0.1 μg/ml CDDP) was 0.652 and the “Average CVE 72 h” value ([1]; CALU-1 Run 1, 0.1 μg/ml CDDP) was 0.441. For the same compound, the “Average CVE 24 h” value ([1]; CALU-1 Run 1, 1 μg/ml CDDP) was 0.231, the “Average CVE 48 h” value ([1]; CALU-1 Run 1, 1 μg/ml CDDP) was 0.661 and the “Average CVE 72 h” value ([1]; CALU-1 Run 1, 1 μg/ml CDDP) was 0.135. For the same compound, the “Average CVE 24 h” value ([1]; CALU-1 Run 1, 10 μg/ml CDDP) was 0.421, the “Average CVE 48 h” value ([1]; CALU-1 Run 1, 10 μg/ml CDDP) was 0.503 and the “Average CVE 72 h” value ([1]; CALU-1 Run 1, 10 μg/ml CDDP) was 0.157. The “Average CVE 24 h” value ([1]; CALU-1 Run 1, 100 μg/ml CDDP) was 0.306, the “Average CVE 48 h” value ([1]; CALU-1 Run 1, 100 μg/ml CDDP) was 0.409 and the “Average CVE 72 h” value ([1]; CALU-1 Run 1, 100 μg/ml CDDP) was 0.125. The “Average CVE 24 h” value ([1]; CALU-1 Run 2, 0.1 μg/ml CDDP) was 0.484, the “Average CVE 48 h” value ([1]; CALU-1 Run 2, 0.1 μg/ml CDDP) was 0.886 and the “Average CVE 72 h” value ([1]; CALU-1 Run 2, 0.1 μg/ml CDDP) was 0.786. The “Average CVE 24 h” value ([1]; CALU-1 Run 2, 1 μg/ml CDDP) was 0.576, the “Average CVE 48 h” value ([1]; CALU-1 Run 2, 1 μg/ml CDDP) was 0.563 and the “Average CVE 72 h” value ([1]; CALU-1 Run 2, 1 μg/ml CDDP) was 0.214. The “Average CVE 24 h” value ([1]; CALU-1 Run 2, 10 μg/ml CDDP) was 0.64, the “Average CVE 48 h” value ([1]; CALU-1 Run 2, 10 μg/ml CDDP) was 0.46 and the “Average CVE 72 h” value ([1]; CALU-1 Run 2, 10 μg/ml CDDP) was 0.254. The “Average CVE 24 h” value ([1]; CALU-1 Run 2, 100 μg/ml CDDP) was 0.416, the “Average CVE 48 h” value ([1]; CALU-1 Run 2, 100 μg/ml CDDP) was 0.352 and the “Average CVE 72 h” value ([1]; CALU-1 Run 2, 100 μg/ml CDDP) was 0.344. The “Average CVE 24 h” value ([1]; CALU-1 Run 3, 0.1 μg/ml CDDP, 24 h) was 0.492, the “Average CVE 48 h” value ([1]; CALU-1 Run 3, 0.1 μg/ml CDDP, 48 h) was 0.389 and the “Average CVE 72 h” value ([1]; CALU-1 Run 3, 0.1 μg/ml CDDP, 72 h) was 0.505. The “Average CVE 24 h” value ([1]; CALU-1 Run 3, 1 μg/ml CDDP, 24 h) was 0.255, the “Average CVE 72 h” value ([1]; CALU-1 Run 3, 1 μg/ml CDDP, 72 h) was 0.184 and the “Average CVE 24 h” value ([1]; CALU-1 Run 3, 10 μg/ml CDDP, 24 h) was 0.558. The “Average CVE 48 h” value ([1]; CALU-1 Run 3, 10 μg/ml CDDP, 48 h) was 0.175, the “Average CVE 72 h” value ([1]; CALU-1 Run 3, 10 μg/ml CDDP, 72 h) was 0.189 and the “Average CVE 24 h” value ([1]; CALU-1 Run 3, 100 μg/ml CDDP, 24 h) was 0.375. For the same compound, the “Average CVE 48 h” value ([1]; CALU-1 Run 3, 100 μg/ml CDDP, 48 h) was 0.159, the “Average CVE 72 h” value ([1]; CALU-1 Run 3, 100 μg/ml CDDP, 72 h) was 0.197 and the “CVE Average” value ([2]; HCT-116, Run 3, 24 h, 0.1 μg/ml CDDP) was 0.371. For the same compound, the “CVE Average” value ([2]; HCT-116, Run 3, 24 h, 1 μg/ml CDDP) was 0.267, the “CVE Average” value ([2]; HCT-116, Run 3, 24 h, 10 μg/ml CDDP) was 0.393 and the “CVE Average” value ([2]; HCT-116, Run 3, 24 h, 100 μg/ml CDDP) was 0.256. The “CVE Average” value ([2]; HCT-116, Run 3, 48 h, 0.1 μg/ml CDDP) was 1.153, the “CVE Average” value ([2]; HCT-116, Run 3, 48 h, 1 μg/ml CDDP) was 0.687 and the “CVE Average” value ([2]; HCT-116, Run 3, 48 h, 10 μg/ml CDDP) was 0.993. The “CVE Average” value ([2]; HCT-116, Run 3, 48 h, 100 μg/ml CDDP) was 0.359, the “CVE Average” value ([2]; HCT-116, Run 3, 72 h, 0.1 μg/ml CDDP) was 1.078 and the “CVE Average” value ([2]; HCT-116, Run 3, 72 h, 1 μg/ml CDDP) was 0.235. The “CVE Average” value ([2]; HCT-116, Run 3, 72 h, 10 μg/ml CDDP) was 0.476, the “CVE Average” value ([2]; HCT-116, Run 3, 72 h, 100 μg/ml CDDP) was 0.214 and the “Average CVE” value ([2]; Run 1, 24 h, 0.1 μg/ml CDDP) was 0.569. The “Average CVE” value ([2]; Run 1, 24 h, 1 μg/ml CDDP) was 0.563, the “Average CVE” value ([2]; Run 1, 24 h, 10 μg/ml CDDP) was 1.173 and the “Average CVE” value ([2]; Run 1, 24 h, 100 μg/ml CDDP) was 0.344. The “Average CVE” value ([2]; Run 1, 48 h, 0.1 μg/ml CDDP) was 0.984, the “Average CVE” value ([2]; Run 1, 48 h, 1 μg/ml CDDP) was 0.624 and the “Average CVE” value ([2]; Run 1, 48 h, 10 μg/ml CDDP) was 0.488. For the same compound, the “Average CVE” value ([2]; Run 1, 48 h, 100 μg/ml CDDP) was 0.356, the “Average CVE” value ([2]; Run 1, 72 h, 0.1 μg/ml CDDP) was 1.352 and the “Average CVE” value ([2]; Run 1, 72 h, 1 μg/ml CDDP) was 0.308. For the same compound, the “Average CVE” value ([2]; Run 1, 72 h, 10 μg/ml CDDP) was 0.501, the “Average CVE” value ([2]; Run 1, 72 h, 100 μg/ml CDDP) was 0.51 and the “Average CVE” value ([2]; Run 2, 24 h, 0.1 μg/ml CDDP) was 0.52. For the same compound, the “Average CVE” value ([2]; Run 2, 24 h, 1 μg/ml CDDP) was 0.302, the “Average CVE” value ([2]; Run 2, 24 h, 10 μg/ml CDDP) was 0.477 and the “Average CVE” value ([2]; Run 2, 24 h, 100 μg/ml CDDP) was 0.303. For the same compound, the “Average CVE” value ([2]; Run 2, 48 h, 0.1 μg/ml CDDP) was 0.971, the “Average CVE” value ([2]; Run 2, 48 h, 1 μg/ml CDDP) was 0.425 and the “Average CVE” value ([2]; Run 2, 48 h, 10 μg/ml CDDP) was 0.608. For the same compound, the “Average CVE” value ([2]; Run 2, 48 h, 100 μg/ml CDDP) was 0.529, the “Average CVE” value ([2]; Run 2, 72 h, 0.1 μg/ml CDDP) was 1.187 and the “Average CVE” value ([2]; Run 2, 72 h, 1 μg/ml CDDP) was 0.551. The “Average CVE” value ([2]; Run 2, 72 h, 10 μg/ml CDDP) was 0.435 and the “Average CVE” value ([2]; Run 2, 72 h, 100 μg/ml CDDP) was 0.492.
